Source: article PMC11567786 (ACS chemical biology, 2024)

How the values were obtained:
Sm-EboD [1] = target: T1, Sm-EboD (Sporocytophaga myxococcoides, UniProt P0DY70); experiment: TLC, product formation; format: biochemical; details: NAD+, Co2+; Tris-HCl pH 7.5; 37°C
T1 sequence (P0DY70 1-387): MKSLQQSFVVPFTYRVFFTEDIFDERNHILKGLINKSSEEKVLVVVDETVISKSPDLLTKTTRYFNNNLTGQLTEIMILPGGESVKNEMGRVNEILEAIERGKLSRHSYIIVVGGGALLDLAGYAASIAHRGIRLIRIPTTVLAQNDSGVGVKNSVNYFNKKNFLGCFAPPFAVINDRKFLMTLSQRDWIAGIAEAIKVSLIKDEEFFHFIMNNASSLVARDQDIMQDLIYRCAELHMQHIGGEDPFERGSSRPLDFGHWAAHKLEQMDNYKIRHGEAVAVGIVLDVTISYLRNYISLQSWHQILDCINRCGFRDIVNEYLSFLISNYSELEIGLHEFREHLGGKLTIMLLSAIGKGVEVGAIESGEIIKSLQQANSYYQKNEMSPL

Sm-EboD [2] = target: T1, Sm-EboD; experiment: large-scale reaction, HR-MS, 1D and 2D NMR of isolated product; format: biochemical; details: NAD+, Co2+; Tris-HCl pH 7.5; 37°C

Row | SMILES | TLC, product formation (Sm-EboD [1]) | large-scale reaction, HR-MS, 1D and 2D NMR of isolated product (Sm-EboD [2])
1 | O=P(O)(O)OC[C@H]1OC(O)[C@@H](O)[C@@H](O)[C@@H]1O (some centres unmarked) [Man6P] | gave the same product with an even better conversion rate | 
2 | O=C1C[C@@H](O)[C@@H](O)[C@@H](O)[C@@H]1O [DEI, 2-deoxy-4-epi-scyllo-inosose] |  | revealed the identity of the compound to be 2-deoxy-4-epi-scyllo-inosose (DEI)
